Source: patent US20260021078A1, “COMPOSITIONS AND METHODS FOR THE TREATMENT OR PREVENTION OF PULMONARY HYPERTENSION” (VIVUS LLC, priority 2015, published 2026)
Read-outs that look alike come from different tables or passages of the source.

How the values were obtained:
[1] = test system: SuHx rat model of pulmonary arterial hypertension; assay: SuHx rat model of PAH with 3 weeks normoxia before treatment, Example 2; assay type: in vivo
Procedure: A second study was conducted as described in Example 1, except the rats injected with Sugen 5416 and placed in hypoxia for 3 weeks were returned to normoxia for three weeks, and then treated for three weeks. The rats were then implanted with s.c. osmotic pumps delivering vehicle (negative control), 0.05 mg/kg/day tacrolimus (FK506), or 0.15 mg/kg/day, 1.0 mg/kg/day, 3.0 mg/kg/day ascomycin (FK520). Rats that were not treated with Sugen 5416 and remained under normoxia served as control. There were 5 rats in the control group, and 10 rats in each treated group. At the end of the study, the rats were anaesthetized and hemodynamic data was obtained. […] The left lobes of the lungs were harvested from every rat, fixed with 10% formalin, sliced at 5 μm thickness, mounted and stained with Movat staining. […] Of particular significance in SuHx model is the rare plexiform lesions (label 4 in FIG. 3A) that are neointimal hyperplasia blocking the small vessels resulting in increased pressure. With plexiform lesions and endothelial cells overgrowth, obliteration is formed.

[2] = test system: BMP response element (BRE) from the Id1 promoter fused to luciferase (BRE-luc) in C2C12 mouse myoblastoma reporter cell line; assay: BRE-luc BMP signaling reporter assay in C2C12 cells; assay type: cell-based
Procedure: The activation of the BMP pathway was measured by luminescence. […] Thus, ascomycin activates BMPR2 signaling, and can be used for the prevention or treatment of diseases associated with decreased BMPR2 signaling, such as pulmonary arterial hypertension (PAH).

[3] = test system: SuHx rat model of pulmonary arterial hypertension; assay: Sugen 5416 plus chronic hypoxia (SuHx) rat model of PAH, Example 1; assay type: in vivo
Excerpt: The purpose of this study was to establish pulmonary arterial hypertension (PAH) in rats by induction with Sugen 5416, a vascular endothelial growth factor (VEGF) inhibitor, plus chronic hypoxia (SuHx) in order to evaluate and compare the efficacy of tacrolimus and ascomycin for the treatment of PAH in the SuHx rat model. The assay is designed to measure the pulmonary and systemic arterial blood pressures related to PAH in the anaesthetized SuHx rat induced with a single subcutaneous dose of Sugen 5416, combined with an induction period of chronic hypoxia.
Male Sprague Dawley rats (Charles River Laboratories) weighing between 200 and 250 g at the time of their enrollment in the study were the test subjects for this study. The animals were assigned to groups by the Study Director in order to evenly distribute the ranges of body weights throughout all treatment groups. Animals in the test groups (n=10 in each group) received one subcutaneous injection of 20 mg/kg of SU5416 on Day 0 and were returned to their respective cages. These rats were placed in cages in which the controlled airflow (ventilated cage system) was adjusted to deliver a FiO2 equivalent to 0.10 (10%) using a mixture of nitrogen and ambient air, for a period of 3 weeks. Animals in the control group (n=5) remained in cages exposed to ambient oxygen levels.
On day 21, animals in the test groups were implanted with osmotic pumps filled with the vehicle alone (negative control), or with the appropriate concentration of tacrolimus (FK506) or ascomycin (FK520) to deliver 0.05 mg/kg/day of tacrolimus, 0.05 mg/kg/day of ascomycin, or 0.15 mg/kg/day of ascomycin for a period of three weeks. At the end of the study, the rats were anaesthetized and hemodynamic data was obtained. […] Cardiac output was lower after administration of Sugen5416 and hyposia, and increased with ascomycin treatment.

[4] = test system: patients with pulmonary hypertension (WHO Group I PAH); assay: Clinical study in patients with pulmonary arterial hypertension, Example 3; assay type: in vivo, human
Excerpt: Patients are invited to participate in this study because they have pulmonary hypertension (PH) and are currently treated with one or multiple drugs for PH such as PDE-5 inhibitors (sildenafil, tadalafil), prostacyclins (Flolan, Remodulin, Iloprost) and/or the endothelin antagonist Ambrisentan. This study is open to male or female subjects, 18-70 years of age, with pulmonary hypertension. The Inclusion and Exclusion criteria used are below:
• 1. Age ≥18 and <70 years • 2. Diagnosis of WHO Group I Pulmonary Arterial Hypertension (PAH) (Idiopathic (I)PAH, Heritable PAH (including Hereditary Hemorrhagic Telangiectasia), Associated (A)PAH (including collagen vascular disorders, drugs+toxins exposure, congenital heart disease, and portopulmonary disease). • 3. Previous Right Heart Catheterization (RHC) that documented: • a. Mean PAP≥25 mmHg. • b. Pulmonary capillary wedge pressure<15 mmHg. • c. Pulmonary Vascular Resistance≥3.0 Wood units or 240 dynes/sec/cm5 • 5. All NYHA/WHO functional classes. • 6. Willingness of female subjects to use birth control, or be post-menopausal, or status post hysterectomy.
• 1. WHO Group II-V Pulmonary Hypertension. • 2. Current or prior experimental PAH treatments within the last 6 months (including but not limited to tyrosine kinase inhibitors, rho-kinase inhibitors, or cGMP modulators). • 3. […]

[5] = assay/target not stated; cited from earlier work
[6] = test system: popliteal lymph node hyperplasia; conditions: popliteal lymph node hyperplasia assay; lower potency than tacrolimus; cited from earlier work
rats = conditions: 14-day, cited from earlier work
[7] = 0.05 mg/kg/day s.c. osmotic pump, three weeks
[8] = 0.15 mg/kg/day by osmotic pump for three weeks, vs vehicle-treated SuHx rats
[9] = all three doses (0.15 [0.3 in b20], 1.0, 3.0 mg/kg/day) s.c. osmotic pump, three weeks

Row | SMILES | right ventricular hypertrophy [1, 7] | right ventricular systolic pressure [1, 7] | IDI activation (luminescence relative to the EC-20 dose of BMP4) ([2]; with exogenous BMP4) | IDI activation (luminescence relative to the EC-20 dose of BMP4) ([2]; without exogenous BMP4) | RVSP (FIG. 1B) [3, 8] | pulmonary arterial pressure (FIG. 1A) [3, 8] | Cardiac output ([3]; ascomycin treatment after Sugen5416 and hypoxia, dose not specified) | lung histopathology (Movat staining micrographs, FIG. 3B) ([1]; 1 mg/kg/day, left lung lobes, negative control showed all four grades of disease progression) | right ventricular systolic pressure [1, 9] | systolic pulmonary arterial pressure [1, 9] | incidences of hypertension or cardiovascular events [4] | tolerability ([4]; all tested doses) | IC50 [5] | immunosuppressive potency compared with tacrolimus (fold lower) [6] | nephrotoxicity (rats; continuous i.p. infusion at 10 mg/kg/day, rats on a normal diet) | nephrotoxicity (rats; continuous i.v. infusion up to 6 mg/kg/day, rats on a low salt diet) | nephrotoxicity (rats; daily oral administration up to 50 mg/kg/day, rats on a normal diet)
1 | C=CC[C@@H]1/C=C(\C)C[C@H](C)C[C@H](OC)[C@H]2O[C@@](O)(C(=O)C(=O)N3CCCC[C@H]3C(=O)O[C@H](/C(C)=C/[C@@H]3CC[C@@H](O)[C@H](OC)C3)[C@H](C)[C@@H](O)CC1=O)[C@H](C)C[C@@H]2OC [tacrolimus, reference compound] | reduces the elevation | reduces the elevation |  |  |  |  |  |  |  |  |  |  |  |  |  |  | 
2 | CC[C@@H]1/C=C(\C)C[C@H](C)C[C@H](OC)[C@H]2O[C@@](O)(C(=O)C(=O)N3CCCC[C@H]3C(=O)O[C@H](/C(C)=C/[C@@H]3CC[C@@H](O)[C@H](OC)C3)[C@H](C)[C@@H](O)CC1=O)[C@H](C)C[C@@H]2OC [ascomycin, (3S,4R,5S,8R,9E,12S,14S,15R,16S,18R, 19R,26aS)-8-ethyl-5,19-dihydroxy-3-{(1E)-1-[(1R,3R,4R)-4-hydroxy-3-methoxycyclohexyl]prop-1-en-2-yl}-14,16-dimethoxy-4,10,12,18-tetramethyl-5.6,8,11,12,13,14,15,16,17,18,19,24,25,26,26a-hexadecahydro-3H-15.19-epoxypyrido[2,1-c][1,4]oxazacyclotricosine-1,7,20,21(4H,23H)-tetrone] |  |  | 238% | 104% | reversed the elevation | reversed the elevation | increased | mostly medial hypertrophy (label 1) and non-muscular vessels | decreases | decreases | no incidences | well tolerated | 0.55 nM | 3 fold | not induced | not induced | not induced
